Test results taken from US20180244611A1, “Modulators of the Cystic Fibrosis Transmembrane Conductance Regulator Protein and Methods of Use” (AbbVie S.à.r.l., priority 2017, published 2018).

Experiments:
F508delCFTR [1] = molecular target: T1, F508delCFTR (Homo sapiens, UniProt P13569, DEL508-508); test: Cell Surface Expression-Horse Radish Peroxidase (CSE-HRP) assay, test compound without co-corrector; assay type: cell-based; details: for Emax: maximum at any tested concentration, normalized to positive control, without co-corrector; for EC50: test compound without co-corrector;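 on Emax: percent of on-plate 2 µM positive control corrector response over DMSO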
T1 construct: expressed in transfected cells; host or cells: CFBE41o- human lung-derived epithelial cells (CFBE41o-F508delCFTR-HRP), doxycycline-inducible
T1 sequence (P13569 with tags, fused parts or gaps DEL508-508): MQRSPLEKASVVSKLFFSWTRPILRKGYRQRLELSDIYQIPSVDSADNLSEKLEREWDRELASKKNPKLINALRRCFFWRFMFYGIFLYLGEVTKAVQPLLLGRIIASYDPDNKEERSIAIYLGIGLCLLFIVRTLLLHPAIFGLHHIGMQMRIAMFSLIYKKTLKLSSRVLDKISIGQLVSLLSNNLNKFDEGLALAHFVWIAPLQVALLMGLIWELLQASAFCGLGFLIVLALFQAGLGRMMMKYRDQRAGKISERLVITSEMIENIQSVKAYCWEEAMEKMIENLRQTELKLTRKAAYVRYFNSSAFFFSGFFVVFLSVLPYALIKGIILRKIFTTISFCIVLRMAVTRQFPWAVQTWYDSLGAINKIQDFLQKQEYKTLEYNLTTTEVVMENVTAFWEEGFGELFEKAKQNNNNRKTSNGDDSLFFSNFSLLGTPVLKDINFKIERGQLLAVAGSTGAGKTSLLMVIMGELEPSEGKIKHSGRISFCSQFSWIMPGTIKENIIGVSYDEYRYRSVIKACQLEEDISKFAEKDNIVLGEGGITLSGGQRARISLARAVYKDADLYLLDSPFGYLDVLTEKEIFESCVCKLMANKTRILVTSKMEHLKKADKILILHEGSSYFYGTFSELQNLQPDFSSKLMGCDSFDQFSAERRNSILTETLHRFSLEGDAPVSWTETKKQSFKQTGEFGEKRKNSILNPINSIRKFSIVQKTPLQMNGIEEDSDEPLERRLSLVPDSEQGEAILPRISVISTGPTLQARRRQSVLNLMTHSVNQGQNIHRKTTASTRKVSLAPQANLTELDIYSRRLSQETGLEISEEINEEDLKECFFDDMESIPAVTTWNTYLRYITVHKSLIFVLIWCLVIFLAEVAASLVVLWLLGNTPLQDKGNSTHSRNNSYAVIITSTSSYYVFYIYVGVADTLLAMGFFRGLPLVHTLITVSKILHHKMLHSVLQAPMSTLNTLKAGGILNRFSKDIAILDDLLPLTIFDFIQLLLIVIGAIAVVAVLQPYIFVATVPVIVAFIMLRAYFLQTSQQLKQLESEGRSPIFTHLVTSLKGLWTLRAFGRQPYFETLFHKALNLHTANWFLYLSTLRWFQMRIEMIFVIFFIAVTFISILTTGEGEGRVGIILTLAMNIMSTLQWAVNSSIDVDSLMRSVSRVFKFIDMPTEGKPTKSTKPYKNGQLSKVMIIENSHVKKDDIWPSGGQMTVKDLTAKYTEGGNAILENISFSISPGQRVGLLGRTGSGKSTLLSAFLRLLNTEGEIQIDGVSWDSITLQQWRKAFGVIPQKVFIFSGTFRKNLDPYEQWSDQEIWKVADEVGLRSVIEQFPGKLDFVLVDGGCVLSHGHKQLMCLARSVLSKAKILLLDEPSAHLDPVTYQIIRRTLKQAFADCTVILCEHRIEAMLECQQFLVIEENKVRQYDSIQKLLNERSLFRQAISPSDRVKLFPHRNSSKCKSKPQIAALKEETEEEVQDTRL
Method: (§1) Cell Surface Expression-Horse Radish Peroxidase (CSE-HRP) Assay
(§2) A cellular assay for measuring the F508delCFTR cell surface expression after correction with test compounds either without or with a co-corrector (2 μM of 3-[(2R,4R)-4-({[1-(2,2-difluoro-1,3-benzodioxol-5-yl)cyclopropyl]carbonyl}amino)-7-methoxy-3,4-dihydro-2H-chromen-2-yl]benzoic acid), was developed in human lung derived epithelial cell line (CFBE41o-) (Veit G et al, (2012) Mol Biol Cell. 23(21): 4188-4202). The development was achieved by expressing the F508delCFTR mutation along with a horseradish peroxidase (HRP) in the fourth exofacial loop, and then measuring the HRP activity using luminescence readout from these cells, CFBE41o-F508delCFTR-HRP, that were incubated overnight with the test corrector compounds, either without or with the co-corrector. For this primary assay, the CFBE41o-F508delCFTR-HRP cells were plated in 384-well plates (Greiner Bio-one; Cat 781080) at 4,000 cells/well along with 0.5 μg/mL doxycycline to induce the F508delCFTR-HRP expression and further incubated at 37° C., 5% CO2 for 72 hours. The test compounds were then added either without or with a co-corrector at the required concentrations and further incubated for 18-24 hours at 33° C. The highest concentration tested was 20 μM with an 8-point concentration response curve using a 3-fold dilution in both the test compound without or with the co-corrector. Three replicate plates were run to determine one EC50. All plates contained negative controls (dimethyl sulfoxide, DMSO) and positive control (2 μM of 3-[(2R,4R)-4-({[1-(2,2-difluoro-1,3-benzodioxol-5-yl)cyclopropyl]carbonyl}amino)-7-methoxy-3,4-dihydro-2H-chromen-2-yl]benzoic acid) as well as on-plate concentration response of the positive control. Post incubation, the plates were washed 5× times with Dulbecco's phosphate buffered saline (DPBS), followed by the addition of the HRP substrate, luminol (50 μL), and measuring the HRP activity using luminescence readout on EnVision® Multilabel Plate Reader (Perkin Elmer; product number 2104-0010). The raw counts from the experiment were analyzed using Accelrys® Assay Explorer v3.3.
(§3) Z′ greater than 0.5 was used as passing quality control criteria for the plates.
(§4) 1−[3*SDPositive Control+3*SDNegative Control/Absolute (MeanPositive Control−MeanNegative Control)]
(§5) wherein “SD” is standard deviation.
(§6) The % activity measured at each of the 8 test concentrations of the test compound added either without or with a co-corrector (2 μM of 3-[(2R,4R)-4-({[1-(2,2-difluoro-1,3-benzodioxol-5-yl)cyclopropyl]carbonyl}amino)-7-methoxy-3,4-dihydro-2H-chromen-2-yl]benzoic acid) was normalized to the on-plate positive control using the following formulae:
% activity (Test compound without co-corrector)=[(test compound without co-corrector response−DMSO response)/(positive control response−DMSO response)]*100%
(§7) The maximum % activity achieved for the test compound either without or with a co-corrector at any tested concentration is presented in Table 1 along with the respective EC50's calculated using the following general sigmoidal curve with variable Hill slope equation (described as Model 42 in the Accelrys® Assay Explorer v3.3 software):
(§8) General sigmoidal curve with concentration, response, top, bottom, EC50 and Hill slope. This model describes a sigmoidal curve with an adjustable baseline, a. The equation can be used to fit curves where response is either increasing or decreasing with respect to the independent variable, “x”.
“x” is a concentration of drug under test. “y” is the response. “a” is the maximum response, and “d” is the minimum response “c” is the inflection point (EC50) for the curve. That is, “y” is halfway between the lower and upper asymptotes when x=c. “b” is the slope-factor or Hill coefficient. The sign of b is positive when the response increases with increasing dose and is negative when the response decreases with increasing dose (inhibition). The data is presented with the qualifiers shown below: […]

F508delCFTR [2] = molecular target: T1, F508delCFTR; test: Cell Surface Expression-Horse Radish Peroxidase (CSE-HRP) assay, test compound with co-corrector; assay type: cell-based; details: with 2 μM co-corrector; for Maximum % activity (with co-corrector): maximum at any tested concentration, normalized to positive control;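 on Maximum % activity (with co-corrector): percent of 2 µM positive control corrector over DMSO; co-corrector is that same compound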
Method: as §1, §2, §3, §4, §5, §6
activity (Test compound with co-corrector)=[(test compound with co-corrector response−DMSO response)/(positive control response−DMSO response)]*100
as §7, §8
“x” is a concentration of drug under test. “y” is the response. “a” is the maximum response, and “d” is the minimum response “c” is the inflection point (EC50) for the curve. That is, “y” is halfway between the lower and upper asymptotes when x=c. “b” is the slope-factor or Hill coefficient. The sign of b is positive when the response increases with increasing dose and is negative when the response decreases with increasing dose (inhibition).

Row | Compound | Emax (F508delCFTR [1]) [%] | EC50 (F508delCFTR [1]) [µM] | Maximum % activity (with co-corrector) (F508delCFTR [2]) | EC50 (F508delCFTR [2]) [µM]
1 | CCC1(C(=O)NS(=O)(=O)c2cccc3cccc(O)c23)CCc2c(Cl)cccc21 (stereo not shown) [Example I-31, 4-chloro-1-ethyl-N-(8-hydroxynaphthalene-1-sulfonyl)-2,3-dihydro-1H-indene-1-carboxamide] | 50 to 150 | < 3 | +++ (≥350) | < 3
2 | CCOc1ccc(Br)c2c1CCCC2C(=O)NS(=O)(=O)c1cccc2ccccc12 (stereo not shown) [Example I-32, 8-bromo-5-ethoxy-N-(naphthalene-1-sulfonyl)-1,2,3,4-tetrahydronaphthalene-1-carboxamide] | ≥ 150 | < 3 | +++ (≥350) | < 3
3 | COc1ccc(C2CCC2)c2c1CCCC2C(=O)NS(=O)(=O)c1cccc2ccccc12 (stereo not shown) [Example I-33, 8-cyclobutyl-5-methoxy-N-(naphthalene-1-sulfonyl)-1,2,3,4-tetrahydronaphthalene-1-carboxamide] | ≥ 150 | < 3 | +++ (≥350) | < 3
4 | CCC1(C(=O)NS(=O)(=O)c2cccc3ccccc23)CCCc2cccc(Cl)c21 (stereo not shown) [Example I-34, 8-chloro-1-ethyl-N-(naphthalene-1-sulfonyl)-1,2,3,4-tetrahydronaphthalene-1-carboxamide] | ≥ 150 | < 3 | +++ (≥350) | < 3
5 | O=C(NS(=O)(=O)c1cccc2ccccc12)C1(Cc2cccc(C(F)(F)F)n2)CCc2c(Cl)cccc21 (stereo not shown) [Example I-35, 4-chloro-N-(naphthalene-1-sulfonyl)-1-{[6-(trifluoromethyl)pyridin-2-yl]methyl}-2,3-dihydro-1H-indene-1-carboxamide] | ≥ 150 | < 3 | +++ (≥350) | < 3
6 | O=C(NS(=O)(=O)c1cccc2ccccc12)C1(Cc2ccc(Cl)nc2)CCc2c(Cl)cccc21 (stereo not shown) [Example I-36, 4-chloro-1-[(6-chloropyridin-3-yl)methyl]-N-(naphthalene-1-sulfonyl)-2,3-dihydro-1H-indene-1-carboxamide] | 50 to 150 | 3 to 10 | +++ (≥350) | < 3
7 | COc1cccc(CC2(C(=O)NS(=O)(=O)c3cccc4ccccc34)CCc3c(Cl)cccc32)n1 (stereo not shown) [Example I-37, 4-chloro-1-[(6-methoxypyridin-2-yl)methyl]-N-(naphthalene-1-sulfonyl)-2,3-dihydro-1H-indene-1-carboxamide] | 50 to 150 | 3 to 10 | +++ (≥350) | 3 to 10
8 | CC1(C(=O)NS(=O)(=O)c2cccc3ccccc23)CCc2c(Cl)cccc21 (stereo not shown) [Example I-38, 4-chloro-1-methyl-N-(naphthalene-1-sulfonyl)-2,3-dihydro-1H-indene-1-carboxamide] | ≥ 150 | 3 to 10 | +++ (≥350) | < 3
9 | CCC1(C(=O)NS(=O)(=O)c2cccc3c(Cl)cccc23)CCc2c(Cl)cccc21 (stereo not shown) [Example I-39, 4-chloro-N-(5-chloronaphthalene-1-sulfonyl)-1-ethyl-2,3-dihydro-1H-indene-1-carboxamide] | 50 to 150 | < 3 | +++ (≥350) | < 3
10 | CC(C)Oc1ccc(Br)c2c1CCCC2C(=O)NS(=O)(=O)c1cccc2ccccc12 (stereo not shown) [Example I-40, 8-bromo-N-(naphthalene-1-sulfonyl)-5-[(propan-2-yl)oxy]-1,2,3,4-tetrahydronaphthalene-1-carboxamide] | ≥ 150 | < 3 | +++ (≥350) | < 3
11 | COc1ccc(Br)c2c1C(C(=O)NS(=O)(=O)c1cccc3ccccc13)CCC2 (stereo not shown) [Example I-41, 5-bromo-8-methoxy-N-(naphthalene-1-sulfonyl)-1,2,3,4-tetrahydronaphthalene-1-carboxamide] | ≥ 150 | < 3 | +++ (≥350) | < 3
12 | CCC1(C(=O)NS(=O)(=O)c2cccc3ncccc23)CCc2c(Cl)cccc21 (stereo not shown) [Example I-42, 4-chloro-1-ethyl-N-(quinoline-5-sulfonyl)-2,3-dihydro-1H-indene-1-carboxamide] | ≥ 150 | < 3 | +++ (≥350) | < 3
13 | CCC1(C(=O)NS(=O)(=O)c2cccc3sccc23)CCc2c(Cl)cccc21 (stereo not shown) [Example I-43, N-(1-benzothiophene-4-sulfonyl)-4-chloro-1-ethyl-2,3-dihydro-1H-indene-1-carboxamide] | 50 to 150 | < 3 | +++ (≥350) | < 3
14 | COc1ccc(Br)c2c1C(C(=O)NS(=O)(=O)c1cccc3ncccc13)CC2 (stereo not shown) [Example I-44, 4-bromo-7-methoxy-N-(quinoline-5-sulfonyl)-2,3-dihydro-1H-indene-1-carboxamide] | ≥ 150 | < 3 | +++ (≥350) | < 3
15 | COCCOc1ccc(Br)c2c1CCCC2C(=O)NS(=O)(=O)c1cccc2ccccc12 (stereo not shown) [Example I-45, 8-bromo-5-(2-methoxyethoxy)-N-(naphthalene-1-sulfonyl)-1,2,3,4-tetrahydronaphthalene-1-carboxamide] | ≥ 150 | < 3 | +++ (≥350) | < 3
16 | COc1ccc(Br)c2c1[C@@H](C(=O)NS(=O)(=O)c1cccc3ncccc13)CC2 [Example I-46, (1S)-4-bromo-7-methoxy-N-(quinoline-5-sulfonyl)-2,3-dihydro-1H-indene-1-carboxamide] | ≥ 150 | 3 to 10 | +++ (≥350) | < 3
17 | COc1ccc(Br)c2c1[C@H](C(=O)NS(=O)(=O)c1cccc3ncccc13)CC2 [Example I-47, (1R)-4-bromo-7-methoxy-N-(quinoline-5-sulfonyl)-2,3-dihydro-1H-indene-1-carboxamide] | ≥ 150 | < 3 | +++ (≥350) | < 3
18 | COc1ccc(Br)c2c1CCC[C@@H]2C(=O)NS(=O)(=O)c1cccc2ccccc12 [Example I-48, (1S)-8-bromo-5-methoxy-N-(naphthalene-1-sulfonyl)-1,2,3,4-tetrahydronaphthalene-1-carboxamide] | ≥ 150 | 3 to 10 | +++ (≥350) | < 3
19 | COc1ccc(Br)c2c1CCC[C@H]2C(=O)NS(=O)(=O)c1cccc2ccccc12 [Example I-49, (1R)-8-bromo-5-methoxy-N-(naphthalene-1-sulfonyl)-1,2,3,4-tetrahydronaphthalene-1-carboxamide] | ≥ 150 | < 3 | +++ (≥350) | < 3
